Data as given in patent US20170096402A1, “5-(HETERO)ARYLPYRIDAZINONES AND THEIR USE AS HERBICIDES” (BAYER CROPSCIENCE AKTIENGESELLSCHAFT, priority 2014, published 2017).

Legend:
[1] = test system: wheat; assay: Pre-emergence method, damage to crop plants; type: in vivo
Excerpt: Seeds of monocotyledonous and dicotyledonous weed plants and crop plants are laid out in wood-fiber pots in sandy loam and covered with soil. The compounds of the invention, formulated in the form of wettable powders (WP) or as emulsion concentrates (EC), are then applied to the surface of the covering soil in the form of an aqueous suspension or emulsion at a water application rate equating to 600 to 800 I/ha, with addition of 0.2% wetting agent. After the treatment, the pots are placed in a greenhouse and kept under good growth conditions for the trial plants. The damage to the test plants is scored visually after a test period of 3 weeks by comparison with untreated controls (herbicidal activity in percent (%): 100% activity=the plants have died, 0% activity=like control plants).

[2] = test system: Triticum aestivum (wheat); assay: Post-emergence method, damage to crop plants (also comparative experiments, TRZAS); type: in vivo
Method: Seeds of monocotyledonous and dicotyledonous weed and crop plants are laid out in sandy loam in wood-fiber pots, covered with soil and cultivated in a greenhouse under good growth conditions. 2 to 3 weeks after sowing, the test plants are treated at the one-leaf stage. The compounds of the invention, formulated in the form of wettable powders (WP) or as emulsion concentrates (EC), are then sprayed onto the green parts of the plants in the form of an aqueous suspension or emulsion at a water application rate equating to 600 to 800 I/ha, with addition of 0.2% wetting agent. After the test plants have been left to stand in the greenhouse under optimal growth conditions for about 3 weeks, the action of the preparations is assessed visually in comparison to untreated controls (herbicidal action in percent (%): 100% activity=the plants have died, 0% activity=like control plants).

[3] = pre-emergence, 320 g per hectare, 3 weeks
[4] = post-emergence, 20 g per hectare, about 3 weeks

| SMILES | damage in wheat [1, 3] | damage in wheat [2, 4] | damage in wheat ([1]; in vivo) | damage in wheat ([2]; in vivo) |
| --- | --- | --- | --- | --- |
| Cc1c(-c2cnn(C)c(=O)c2O)ccc(C(F)(F)F)c1SCC1CC1 [1-553] | no damage | no damage | – | – |
| Cc1c(-c2cnn(C)c(=O)c2O)ccc(C(F)(F)F)c1[S+]([O-])CC1CC1 (centres unmarked) [1-554] | – | no damage | – | – |
| Cc1c(-c2cnn(C)c(=O)c2O)ccc(C(F)(F)F)c1S(=O)(=O)CC1CC1 [1-555, 5-{3-[(cyclopropylmethyl)sulfonyl]-2-methyl-4-(trifluoromethyl)phenyl}-4-hydroxy-2-methylpyridazin-3(2H)-one] | – | – | no damage | no damage |
| COCCSc1c(C(F)(F)F)ccc(-c2cnn(C)c(=O)c2O)c1C [1-1069] | no damage | no damage | – | – |
| COCC[S+]([O-])c1c(C(F)(F)F)ccc(-c2cnn(C)c(=O)c2O)c1C (centres unmarked) [1-1070] | no damage | no damage | – | – |
| COCCS(=O)(=O)c1c(C(F)(F)F)ccc(-c2cnn(C)c(=O)c2O)c1C [1-1071] | no damage | no damage | – | – |
